{"source": "patent US20200129528A1", "about": "“METHODS FOR TREATING BLOOD PRESSURE CONDITIONS USING AMINOSTEROL COMPOSITIONS” (Enterin, Inc., priority 2018, published 2020)", "key": {"[1]": {"test_system": "patients with PD and constipation", "assay": "Phase 2 trial Stage 2: bowel function with daily oral dosing escalated to a fixed dose", "format": "in vivo, human", "description": "Following successful screening, all subjects underwent a 14-day run-in period where the degree of constipation was assessed through a validated daily log (Zinsmeister et al. 2013) establishing baseline CSBMs/week. Subjects with an average of <3 CSBMs/week proceeded to dosing.\n(§1) In Stage 2, 34 patients were evaluated. […] This dose was then maintained (“fixed dose”) fir an additional 3-5 days.\nThe primary efficacy outcome variable was whether or not a subject was a “success” or “failure”. This is an endpoint based on subject diary entries for the “fixed dose” period prior to the endpoint assessment defined as average complete stool frequency increase by 1 or more over baseline, or 3 or more complete spontaneous stools/week. The subject was deemed a “success” if s/he met one or more of the criteria listed above, otherwise the subject was deemed a “failure”. The primary analysis was based on all subjects with a baseline assessment and an assessment at the end of the “fixed-dose” period and was a comparison of the proportion of successes with 0.10 (the null hypothesis corresponding to no treatment effect).\nThe proportion of subjects for whom the drug was a success was estimated with a binomial point estimate and corresponding 95% confidence interval. A secondary analysis compared the proportions of subjects who are deemed a success at the end of the randomized fixed-dose period between those randomized to the squalamine (ENT-01) arm and those randomized to the placebo arm. A Fisher's exact test was used to compare the proportions of subjects who were deemed a success at the end of randomization period between the two randomized arms"}, "[2]": {"test_system": "patients with PD and constipation", "assay": "Phase 2 trial Stage 2: adverse events", "format": "in vivo, human", "description": "as §1"}, "[3]": {"test_system": "patients with PD and constipation", "assay": "Phase 2 trial: adverse events in all 44 dosed patients", "format": "in vivo, human", "description": "Fifty patients were enrolled and 44 were dosed. In Stage 1, 10 patients were dosed, 1 (10%) withdrew prior to completion and 9 (90%) completed dosing. In stage 2, 6 (15%) patients had ≥3 CSBM/week at the end of the run-in period and were excluded, 34 patients were dosed and bowel response was assessable in 31 (91%). Two patients (5.8%) were terminated prior to completion because of recurrent dizziness, and 3 others withdrew during dosing (8.8%): 2 because of diarrhea and 1 because of holiday. Fifteen patients were randomized.\nMost AEs were confined to the GI tract (88% in Stage 1 and 63% in Stage 2). The most common AE was nausea which occurred in 4/10 (40%) patients in Stage 1 and in 18/34 (52.9%) in Stage 2 (Table 2). Diarrhea occurred in 4/10 (40%) patients in Stage 1 and 15/34 (44%) in Stage 2. One patient withdrew because of recurrent diarrhea. Other GI related AEs included abdominal pain 11/44 […], flatulence 3/44 (6.8%), vomiting 3/44 (6.8%), worsening of acid reflux 2/44 (4.5%), and worsening of hemorrhoids 1/44 (2.2%). […] The only other noteworthy AE was dizziness 8/44 (18%). Dizziness was graded as moderate in one patient who was receiving an alpha-adrenergic blocking agent (Terazosin). This patient was withdrawn from the study and recovered spontaneously."}, "[4]": {"test_system": "patients with PD and constipation", "assay": "Sleep diary in Stage 2: total sleep time, arm or leg thrashing (RBD)", "format": "in vivo, human", "conditions": "baseline to maximal dose", "description": "FIG. 3 is a chart of total sleep time in relation to squalamine dose. Total sleep time was obtained from the sleep diary by subtracting awake time during the night from total time spent in bed. Total sleep time per night was logged for each patient at baseline, each dosing period and at washout, and the means were determined. The light grey bar represents the baseline value for each cohort at a given dose level and the dark grey bar represents the value for the same cohort at the stated dose of squalamine (ENT-01; Kenterin™). The number of patients represented at each value are: Baseline, 33; 75 mg, 21; 100 mg, 28; 125 mg, 18; 150 mg, 15; 175 mg, 12; 200 mg, 7; 225 mg, 3; 250 mg, 2; washout, 33. P values were as follows: 75 mg, p=0.4; 100 mg, p=0.1; 125 mg, p=0.3; 150 mg, p=0.07; 175 mg, p=0.03; 200 mg, p=0.3; 225 mg, p=0.5; 250 mg, p=0.3; wash-out, p=0.04 (paired t test).\n(5) Sleep Diary (participants completed a sleep diary on a daily basis throughout the study. The diaries included time into bed and estimated time to sleep as well as wake time and duration during the night.); […]"}, "[5]": {"test_system": "patients with PD and constipation", "assay": "Systolic blood pressure in Stage 2 of the clinical study", "format": "in vivo, human", "conditions": "for change of blood pressure in subjects with high blood pressure / change of blood pressure in subjects with low blood pressure: Stage 2, post medication / fixed dose versus baseline", "source_text": "Subjects in Stage 2 of the clinical study described in Example 1 had their systolic blood pressure measured at various points during the clinical study. […]"}, "[6]": {"test_system": "patients with PD and constipation", "assay": "Systolic blood pressure in Stage 1 (single dose)", "format": "in vivo, human", "conditions": "lying position", "source_text": "Normalization refers to lowering high blood pressure and raising low blood pressure into normal ranges. The numbers shown in the graph represent baseline BP then highest treatment BP, both in the lying position, pre-medication. The result is significant despite the small sample size (p=0.01)."}, "[7]": {"parameters": "species or system rats", "conditions": "rat, in vivo"}, "[8]": {"parameters": "species or system dogs", "conditions": "dog, in vivo"}, "[9]": {"conditions": "Stage 2, individual subjects, one line per subject"}}, "note": "Several values for one entry are separate records, joined by “and”; a condition that tells them apart may be missing. Identical values can stand only once. Like-named read-outs stand apart in the source and are kept apart here."}
{"smiles": "CC(C)[C@@H](CC[C@@H](C)[C@H]1CC[C@H]2[C@@H]3[C@H](O)C[C@H]4C[C@@H](NCCCNCCCCN)CC[C@]4(C)[C@H]3CC[C@]12C)OS(=O)(=O)O", "note": "(single isomer, unassigned) [ENT-01, squalamine]", "values": [{"measurement": "decrease of rescue medication use, baseline to fixed dose", "setting": "[1]; Stage 2, 1.8/week to 0.3", "result": 83, "unit": "%"}, {"measurement": "improvement of SBM, baseline to fixed dose", "setting": "[1]; Stage 2, 2.6 to 4.5", "result": 73, "unit": "%"}, {"measurement": "Ease of passage (Ease of evacuation scale 1-7)", "setting": "[1]; Stage 2, at fixed dose, mean (SD), baseline 3.2, listed as aminosterol", "result": 3.7}, {"measurement": "patients who withdrew during dosing because of diarrhea", "setting": "[2]; Stage 2", "result": 2}, {"measurement": "Difficulty falling asleep, mild", "setting": "[2]; Stage 2, 34 dosed", "result": "1(3)^ n, %"}, {"measurement": "Eye infection, mild", "setting": "[2]; Stage 2, 34 dosed", "result": "1(3)^ n, %"}, {"measurement": "Flatulence, mild", "setting": "[2]; Stage 2, 34 dosed", "result": "1(3)^ n, %"}, {"measurement": "Urinary retention, mild", "setting": "[2]; Stage 2, 34 dosed", "result": "1(3)^ n, %"}, {"measurement": "Urinary tract infection, mild", "setting": "[2]; Stage 2, 34 dosed", "result": "1(3)^ n, %"}, {"measurement": "Worsening hemorrhoid, mild", "setting": "[2]; Stage 2, 34 dosed", "result": "1(3)^ n, %"}, {"measurement": "outcome of all other AEs", "setting": "[3]; human, in vivo", "result": "resolved spontaneously without discontinuation"}, {"measurement": "lower GI bleed (serious adverse event), relation to drug", "setting": "[3]; one patient, during the withdrawal period, on aspirin, naproxen and clopidogrel", "result": "unrelated to study medication"}, {"measurement": "improvement of arm or leg thrashing frequency", "setting": "[4]", "result": 100, "unit": "%"}, {"measurement": "BP at FD-V4 pre dose", "setting": "[5]; [9]", "result": "122 and 147 and 144 and 154 and 115 and 110 (2×) and 138 and 130 and 121 and 113"}, {"measurement": "BP at V4 + 2 hrs post dose", "setting": "[5]; [9]", "result": "113 and 163 and 138 and 105 and 11 and 132 (2×) and 126 and 131 and 115"}, {"measurement": "final BP- v3, mean", "setting": "[5]; Stage 2, mean of series, initial mean 133.4219, p=0.011638", "result": 126.3}, {"measurement": "change of blood pressure in subjects with high blood pressure", "setting": "[5]", "result": "decreased blood pressure"}, {"measurement": "change of blood pressure in subjects with low blood pressure", "setting": "[5]", "result": "increased blood pressure"}, {"measurement": "change of blood pressure in subjects with high blood pressure", "setting": "[5]; listed as aminosterol", "result": "lower blood pressure"}, {"measurement": "change of blood pressure in subjects with low blood pressure", "setting": "[5]; listed as aminosterol", "result": "higher blood pressure"}, {"measurement": "effect on systolic BP", "setting": "[6]", "result": "normalization of systolic BP"}, {"measurement": "oral bioavailability", "setting": "[7]", "result": "limited bioavailability"}, {"measurement": "absorption from the intestine", "setting": "[7]; po", "result": "low"}, {"measurement": "oral bioavailability", "setting": "[8]", "result": "limited bioavailability"}]}
